Assay results as given in patent publication US20250257060A1, “OXADIAZOLE COMPOUND, PHARMACEUTICAL COMPOSITION COMPRISING SAME, AND USE THEREOF” (SUZHOU GENHOUSE BIO CO., LTD., priority 2022, published 2025).
Like-named read-outs stand apart in the source and are kept apart here.

Experiments:
[1] = target: HDAC6 (Homo sapiens (Human), UniProt Q9UBN7); assay: HDAC6 enzymatic activity assay; format: biochemical
How it was run: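 Recombinant HDAC6 with compound and Ac-GAK(Ac)-AMC substrate ([…]), 37° C. for 30 min, then developed with trypsin plus TSA for 15 min at room temperature. IC50 from curve fitting.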

[2] = Brain-to-blood drug concentration ratio of mice; format: in vivo; conditions: mouse; for Kp at 1 h / Kp at 4 h: brain/plasma
How it was run: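 Mice (9/group) dosed once IV or PO; orbital blood into K2-EDTA tubes for plasma, with brain homogenate, processed by acetonitrile precipitation (propafenone internal standard) and measured by LC-MS/MS. Ratio taken as brain tissue concentration over plasma concentration at the same time point.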

[3] = system: acetylation level of α-tubulin in HCC827 cells; assay: Assay on acetylation level of α-tubulin, HCC827 cells; format: cell-based; conditions: Homo sapiens, 6 h
Procedure: A375/HCT116/HCC827 cells at a logarithmic growth phase were taken, digested with a […] (trypsin), centrifuged, counted, and plated in a 96-well plate at an appropriate cell density (30,000 cells/well) at 100 µL/well, and an appropriate amount of PBS was added around the plate for water sealing. The next day, the cells were treated with the compounds at different concentrations (starting at 100 μM, 5-fold dilution, 9 concentration gradients). After 6 h, the medium was pipetted out and the cells were washed twice with 100 μL of PBST. The cells were then immobilized in 4% paraformaldehyde, and the plate was incubated at room temperature for 20 min. The stationary liquid was discarded and the cells were washed with PBST. 150 μL of special blocking buffer (containing 1% Triton-100) was added to each well for blocking at room temperature for 2 h, and the plate was washed with PBS to remove excess blocking buffer. α-tubulin (DM1A) mouse mAb and acetyl-α-tubulin (Lys40) (D20G3) XP rabbit mAb were diluted at a 1:2000 ratio with a blocking buffer containing 0.033% Triton-100. The dilutions were added to the 96-well plate and the plate was incubated overnight at 4° C. Meanwhile, a blank control group was set. The next day, the plate was washed twice with PBST. […] Fluorescence signals at 700 nm and 800 nm were detected with a Li-COR Odyssey two-color near-infrared laser imager.

[4] = system: Salmonella typhimurium auxotroph strains TA98 and TA100; assay: Ames assay (mutagenicity test); format: cell-based; conditions: TA98 and TA100, with or without S9
Procedure: The test strains adopted in the mutagenicity test were Salmonella typhimurium auxotroph strains TA98 and TA100. The test was performed using a 6-well plate in the presence or absence of the S9 metabolic activation system, with both a solvent control group (DMSO) and a positive control group set, with 2 replicate wells per treatment group. Compounds were set at 5 concentrations ranging from 62.5 μg/well to 1000.0 μg/well (equivalent to 312.5 μg/dish to 5000.0 μg/dish in the standard Ames assay). The plate was incubated at 37° C. for 48-72 h, and then bacterial toxicity was measured in each well and the number of mutant colonies in each well was counted. When the number of revertant colonies of the test compound groups is more than twice the number of spontaneous revertant colonies of the solvent control group in a reproducible and dose-dependent manner, the test substance is considered to have positive mutagenicity for the test strain.
In this test, dimethyl sulfoxide (DMSO) was used to dissolve the test substance and served as a negative (solvent) control. In the S9-free group (−S9), 2-nitrofluorene and sodium azide were used as positive controls for TA98 and TA100, respectively; in the S9 group (+S9), 2-aminofluorene was used as a positive control for TA98 and TA100.

[5] = brain, 2 mg/kg IV, read-out: Brain drug concentration
[6] = brain, 10 mg/kg PO, read-out: Brain drug concentration
[7] = plasma, 2 mg/kg IV, read-out: Blood drug concentration
[8] = plasma, 10 mg/kg PO, read-out: Blood drug concentration

HDAC6, sequence (Q9UBN7 whole entry): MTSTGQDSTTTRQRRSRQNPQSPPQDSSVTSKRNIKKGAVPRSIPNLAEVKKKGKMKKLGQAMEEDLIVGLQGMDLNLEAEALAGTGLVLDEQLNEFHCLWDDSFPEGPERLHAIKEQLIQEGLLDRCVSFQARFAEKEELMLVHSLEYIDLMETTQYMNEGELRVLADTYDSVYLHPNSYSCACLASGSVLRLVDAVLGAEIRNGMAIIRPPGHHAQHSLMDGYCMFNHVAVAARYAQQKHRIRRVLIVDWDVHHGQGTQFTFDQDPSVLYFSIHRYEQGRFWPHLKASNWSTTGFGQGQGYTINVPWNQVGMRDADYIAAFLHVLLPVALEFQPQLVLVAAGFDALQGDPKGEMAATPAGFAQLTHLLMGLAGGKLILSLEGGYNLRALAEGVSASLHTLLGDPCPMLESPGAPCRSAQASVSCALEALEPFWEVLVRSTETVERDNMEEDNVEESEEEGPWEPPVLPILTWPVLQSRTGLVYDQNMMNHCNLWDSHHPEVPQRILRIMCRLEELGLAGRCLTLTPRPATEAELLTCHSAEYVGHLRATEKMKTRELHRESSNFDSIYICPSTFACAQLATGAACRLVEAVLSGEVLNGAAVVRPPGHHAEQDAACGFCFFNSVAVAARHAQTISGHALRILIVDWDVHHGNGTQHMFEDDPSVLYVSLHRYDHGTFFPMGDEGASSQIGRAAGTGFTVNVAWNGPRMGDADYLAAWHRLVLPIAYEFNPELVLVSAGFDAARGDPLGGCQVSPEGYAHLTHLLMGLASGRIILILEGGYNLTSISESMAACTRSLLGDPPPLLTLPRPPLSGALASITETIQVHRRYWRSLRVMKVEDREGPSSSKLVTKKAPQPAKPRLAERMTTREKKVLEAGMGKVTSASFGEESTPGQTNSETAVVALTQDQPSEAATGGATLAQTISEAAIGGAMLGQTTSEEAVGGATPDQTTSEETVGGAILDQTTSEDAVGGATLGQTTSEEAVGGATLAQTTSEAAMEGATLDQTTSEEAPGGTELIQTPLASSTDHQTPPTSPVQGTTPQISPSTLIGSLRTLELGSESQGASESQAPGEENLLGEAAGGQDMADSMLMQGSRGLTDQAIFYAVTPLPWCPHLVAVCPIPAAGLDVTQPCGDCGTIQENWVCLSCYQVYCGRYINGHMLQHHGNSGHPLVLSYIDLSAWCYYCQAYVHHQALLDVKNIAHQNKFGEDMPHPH

Row | Compound | IC50 [1] [nM] | concentration at 1 h [2, 5] [ng/mL] | concentration at 4 h [2, 5] [ng/mL] | concentration at 1 h [2, 6] [ng/mL] | concentration at 4 h [2, 6] [ng/mL] | Kp at 1 h ([2]; 2 mg/kg IV) | Kp at 4 h ([2]; 2 mg/kg IV) | Kp at 1 h ([2]; 10 mg/kg PO) | Kp at 4 h ([2]; 10 mg/kg PO) | concentration at 1 h [2, 7] [ng/mL] | concentration at 4 h [2, 7] [ng/mL] | concentration at 1 h [2, 8] [ng/mL] | concentration at 4 h [2, 8] [ng/mL] | EC50 [3] [nM] | Pollutant mutagenicity test results [4]
1 | CC(F)(F)C(=O)N[C@@H]1CCCC[C@H]1N1Cc2ccc(-c3nnc(C(F)F)o3)cc2S1(=O)=O [Compound 1] | 59 | 285 | 161 | 759 | 373 | 0.29 | 0.36 | 0.18 | 0.15 | 986 | 453 | 4270 | 2500 | 338 | 
2 | O=C(N[C@@H]1CCCC[C@H]1N1Cc2ccc(-c3nnc(C(F)F)o3)cc2S1(=O)=O)C(F)F [Compound 2] |  | 268 | 149 | 882 | 435 | 0.26 | 0.25 | 0.18 | 0.15 | 1090 | 595 | 4990 | 2830 | 288 ± 49.3 | 
3 | O=C(N[C@H]1[C@H](N2Cc3ccc(-c4nnc(C(F)F)o4)cc3S2(=O)=O)CCCC1(F)F)C(F)F [Compound 61] | 63 |  |  |  |  |  |  |  |  |  |  |  |  |  | Negative
